This passage reports IC50 results from patent EP0938474B1, “CYCLOPROPYLINDOLE COMPOUNDS AND THEIR USE AS PRODRUGS” (AUCKLAND UNISERVICES LIMITED, priority 1996, dated 1998).

In the test the test system is UV4. The test is described as follows: Cytotoxicity (growth inhibition), 4 h drug exposure, methylene blue staining. It is filed as cell-based, rodent. Conditions: Cricetulus griseus; UV4 mutant AA8 line defective in excision repair; 4 hours exposure, then three days incubation. The method, then:
Compounds of the invention were tested for cytotoxicity against four different cell lines, all of which are widely available in the art. AA8 is a wild type rodent cell line. UV4 is a mutant AA8 cell line defective in excision repair, and hypersensitive to many alkylating agents. EMT6 is a widely-used rodent line. SKOV is a human ovarian cell line.
Cell culture assays were performed in 96-well microtitre trays. Compounds of the invention were added in culture medium, using serial two-fold dilutions to provide duplicate cultures at five different concentrations for each of eight drugs (plus eight controls) per tray. Drugs were dissolved in water or DMSO immediately prior to addition to the cell culture. After 4 hours, drugs were removed by washing cultures three times with fresh medium, and the trays were incubated for a futher three days. Cell density was then determined by staining with methylene blue as described previously (Finlay, G. J., et al, Anal. Biochm. 1984, 139, 272-277) and the IC50 was calculated as the drug concentration providing 50% inhibition of growth relative to the controls.

Regarding `COc1cc2cc(C(=O)N3CC(COS(C)(=O)=O)c4c3cc(N)c3ccccc43)[nH]c2c(OC)c1OC` (stereo not shown) [15o, 5-amino-1-[(methanesulfonyloxy)methyl]-3-[(5,6,7-trimethoxyindol-2-yl)carbonyl]-1,2-dihydro-3H-benz[e]indole], the midpoint of inhibition, the IC50, lay at 665 nM.
